Activity calls are given as the source filed them. No cut-off for these calls is given here.
Experiments:
[1] = tested on: RAW264.7; test: Cytotoxicity against mouse RAW264.7 cells assessed as reduction in cell viability at 6.25 to 100 uM after 24 hrs by EZ-Cytox cell viability assay; type: cell-based; settings: raw264.7, 24 h
[2] = tested on: RAW264.7; test: Antiinflammatory activity against mouse RAW264.7 cells assessed as reduction in LPS-induced iNOS protein expression at 25 to 100 uM after 24 hrs by Western blot analysis; type: functional, cell-based
[3] = tested on: RAW264.7; test: Inhibition of LPS-induced NO production in mouse RAW264.7 cells by Griess reagent based assay; type: functional, cell-based
[4] = tested on: RAW264.7; test: Antiinflammatory activity against mouse RAW264.7 cells assessed as reduction in LPS-induced iNOS protein expression at 10 to 50 uM after 24 hrs by Western blot analysis; type: functional, cell-based

Row | Structure (SMILES) | Activity [1] | other results
1 | CC1=CC(=O)CC(C)(C)[C@@]1(O)/C=C/[C@H](CO)O[C@@H]1O[C@H](CO)[C@@H](O)[C@H](O)[C@H]1O | Non-Toxic | –
2 | O=C1C[C@@H](c2cc(O)cc(O)c2)Oc2cc(O)cc(O)c21 | Non-Toxic | –
3 | COc1cc(/C=C/C(=O)O)cc(OC)c1O[C@@H]1O[C@H](CO)[C@@H](O)[C@H](O)[C@H]1O | Non-Toxic | –
4 | COc1cc(-c2oc3cc(O)cc(O)c3c(=O)c2O[C@@H]2O[C@H](CO)[C@@H](O)[C@H](O)[C@H]2O)ccc1O[C@@H]1O[C@H](CO)[C@@H](O)[C@H](O)[C@H]1O | Non-Toxic | –
5 | COc1cc(/C=C/CO)cc(OC)c1O[C@@H]1O[C@H](CO)[C@@H](O)[C@H](O)[C@H]1O [SYRINGIN] | Non-Toxic | –
6 | CC1=CC(=O)CC(C)(C)[C@H]1/C=C/[C@@H](CO)O[C@@H]1O[C@H](CO)[C@@H](O)[C@H](O)[C@H]1O | Non-Toxic | –
7 | C[C@@H](/C=C/[C@H]1C(CO)=CC(=O)CC1(C)C)O[C@@H]1O[C@H](CO)[C@@H](O)[C@H](O)[C@H]1O | Non-Toxic | –
8 | COc1cc(-c2oc3cc(O)cc(O)c3c(=O)c2O[C@@H]2O[C@H](CO[C@@H]3O[C@@H](C)[C@H](O)[C@@H](O)[C@H]3O)[C@@H](O)[C@H](O)[C@H]2O)ccc1O [NARCISSIN] | Non-Toxic | –
9 | CC1=CC(=O)CC(C)(C)[C@@]1(O)/C=C/[C@H](C)O[C@@H]1O[C@H](CO)[C@@H](O)[C@H](O)[C@H]1O [6S,9S-ROSEOSIDE] | Non-Toxic | –
10 | COc1cc(/C=C/C(=O)O[C@@H]2O[C@H](CO)[C@@H](O)[C@H](O)[C@H]2O)ccc1O | Non-Toxic | –
11 | O=C1c2c(O)cc(O)cc2O[C@H](c2ccc(O)cc2)[C@H]1O [DIHYDROKAEMPFEROL] | Non-Toxic | –
12 | COc1cc(C(C)=O)ccc1O[C@@H]1O[C@H](CO)[C@@H](O)[C@H](O)[C@H]1O [ANDROSIN] | Non-Toxic | –
13 | CC1=CC(=O)CC(C)(C)[C@H]1CC[C@@H](CO)O[C@@H]1O[C@H](CO)[C@@H](O)[C@H](O)[C@H]1O | Non-Toxic | –
14 | CC1=CC(=O)CC(C)(C)[C@H]1CC[C@@H](O)CO[C@@H]1O[C@H](CO)[C@@H](O)[C@H](O)[C@H]1O | Non-Toxic | –
15 | COc1cc(-c2oc3cc(O)cc(O)c3c(=O)c2O[C@@H]2O[C@H](CO)[C@@H](O)[C@H](O)[C@H]2O)ccc1O | Non-Toxic | –
16 | CC(C)(O)c1ccc(CO[C@@H]2O[C@H](CO)[C@@H](O)[C@H](O)[C@H]2O)cc1 | Non-Toxic | –
17 | CC1=CC(=O)CC(C)(C)[C@@H]1/C=C/[C@H](CO)O[C@@H]1O[C@H](CO)[C@@H](O)[C@H](O)[C@H]1O | Non-Toxic | –
18 | O=C1c2c(O)cc(O)cc2O[C@H](c2ccc(O)c(O)c2)[C@H]1O [(+)-TAXIFOLIN] | Non-Toxic | Activity [2]: Active; IC50 [3]: 81.6 µM; inhibition [3]: Dose-dependent effect
19 | O=C1c2c(O)cc(O[C@@H]3O[C@H](CO)[C@@H](O)[C@H](O)[C@H]3O)cc2O[C@H](c2ccc(O)c(O)c2)[C@H]1O | Non-Toxic | Activity [4]: Active; IC50 [3]: 43.8 µM; inhibition [3]: Dose-dependent effect
20 | COc1cc([C@H]2OC[C@H]3[C@@H]2CO[C@@H]3c2cc(OC)c(O[C@@H]3O[C@H](CO)[C@@H](O)[C@H](O)[C@H]3O)c(OC)c2)cc(OC)c1O | Non-Toxic | –
21 | CC1=CC(=O)CC(C)(C)[C@H]1CC[C@@H](O)CO | Non-Toxic | –
22 | O=c1c(O)c(-c2ccc(O)c(O)c2)oc2cc(O)cc(O)c12 [QUERCETIN] | – | IC50 [3]: 22.7 µM
